Assay results published in PubChem BioAssay AID284 (DTP/NCI, 2004).
Several values for one entry are separate records, joined by “and”; a condition that tells them apart may be missing. Equal values may be shown once. Toxic doses and inconclusive results are not listed.

Tested on: BDF1 mice, L1210/MTX-resistant leukemia ip, survival T/C
Experiment: NCI In Vivo Anticancer Drug Screen. Data for tumor model L1210 Leukemia resistant to Methotrexate; NSC 740 (intraperitoneal) in B6D2F1 (BDF1) mice
Details: endpoint: mean survival time, higher = longer survival
Method: The antitumor activity of compounds was measured in mice bearing transplantable tumors. Survival or tumor size were measured and the results are expressed as the measurement made in the treated group (T) divided by the measurement made in the vehicle treated control group (C). The tumor model used in this assay is L1210 Leukemia resistant to Methotrexate; NSC 740 (intraperitoneal) in B6D2F1 (BDF1) mice

[1] = dose: 5.0 mg/kg/injection, schedule: Q01DX Z (ip), vehicle: carboxymethylcellulose (CMC)
[2] = dose: 7.5 mg/kg/injection, schedule: Q01DX Z (ip), vehicle: carboxymethylcellulose (CMC)
[3] = dose: 10.0 mg/kg/injection, schedule: Q01DX Z (ip), vehicle: carboxymethylcellulose (CMC)
[4] = dose: 12.5 mg/kg/injection, schedule: Q01DX Z (ip), vehicle: carboxymethylcellulose (CMC)
[5] = dose: 50.0 mg/kg/injection, schedule: Q01DX Z (ip), vehicle: carboxymethylcellulose (CMC)
[6] = dose: 2.0 mg/kg/injection, schedule: Q01DX Z (ip), vehicle: carboxymethylcellulose (CMC)
[7] = dose: 3.0 mg/kg/injection, schedule: Q01DX Z (ip), vehicle: carboxymethylcellulose (CMC)
[8] = dose: 6.0 mg/kg/injection, schedule: Q01DX Z (ip), vehicle: carboxymethylcellulose (CMC)
[9] = dose: 15.0 mg/kg/injection, schedule: Q01DX Z (ip), vehicle: carboxymethylcellulose (CMC)
[10] = dose: 25.0 mg/kg/injection, schedule: Q01DX Z (ip), vehicle: carboxymethylcellulose (CMC)

For `Nc1nc2n[nH]nc2c(=O)[nH]1`, the T/C (dose: 25.0 mg/kg/injection, schedule: Q01DX010 (ip), vehicle: alkali diluted with saline) was 92 % of control, the T/C (dose: 25.0 mg/kg/injection, schedule: Q01DX Z (ip), vehicle: water) was 120 % of control and the T/C (dose: 50.0 mg/kg/injection, schedule: Q01DX010 (ip), vehicle: alkali diluted with saline) was 94 % of control and 99 % of control. The T/C (dose: 50.0 mg/kg/injection, schedule: Q01DX Z (ip), vehicle: other) was 106 % of control, the T/C (dose: 50.0 mg/kg/injection, schedule: Q01DX Z (ip), vehicle: water) was 120 % of control and the T/C (dose: 100.0 mg/kg/injection, schedule: Q01DX010 (ip), vehicle: alkali diluted with saline) was 90 % of control and 91 % of control. The T/C (dose: 100.0 mg/kg/injection, schedule: Q01DX Z (ip), vehicle: other) was 101 % of control, the T/C (dose: 200.0 mg/kg/injection, schedule: Q01DX010 (ip), vehicle: alkali diluted with saline) was 88 % of control and 98 % of control and the T/C (dose: 200.0 mg/kg/injection, schedule: Q01DX Z (ip), vehicle: water) was 107 % of control. For the same compound, the T/C (dose: 350.0 mg/kg/injection, schedule: Q01DX Z (ip), vehicle: water) was 94 % of control.

For `CC(CCC(C)OS(C)(=O)=O)OS(C)(=O)=O` (stereo not given), the T/C (dose: 3.75 mg/kg/injection, schedule: Q01DX Z (ip), vehicle: carboxymethylcellulose (CMC)) was 86 % of control, the T/C [1] was 114 % of control and the T/C [2] was 106 % of control. For the same compound, the T/C [3] was 91 % of control, the T/C [4] was 98 % of control and the T/C [5] was 88 % of control. For the same compound, the T/C (dose: 75.0 mg/kg/injection, schedule: Q01DX Z (ip), vehicle: carboxymethylcellulose (CMC)) was 98 % of control.

In the case of `N[C@@H](Cc1ccc(N(CCCl)CCCl)cc1)C(=O)O`, the T/C (dose: 0.5 mg/kg/injection, schedule: Q01DX Z (ip), vehicle: carboxymethylcellulose (CMC)) is reported as 114 % of control, the T/C (dose: 1.0 mg/kg/injection, schedule: Q01DX Z (ip), vehicle: carboxymethylcellulose (CMC)) is reported as 100 % of control and the T/C [6] is reported as 110 % of control. For the same compound, the T/C [7] was 114 % of control, the T/C (dose: 4.0 mg/kg/injection, schedule: Q01DX Z (ip), vehicle: carboxymethylcellulose (CMC)) was 107 % of control and the T/C [8] was 97 % of control. For the same compound, the T/C (dose: 8.0 mg/kg/injection, schedule: Q01DX Z (ip), vehicle: carboxymethylcellulose (CMC)) was 86 % of control.

With `Nc1nc(N)c2nc(CNc3ccc(C(=O)NC(CCC(=O)O)C(=O)O)cc3)cnc2n1` (stereo not given) the T/C (dose: 0.05 mg/kg/injection, schedule: Q01DX010 (ip), vehicle: other) was 90 % of control, the T/C (dose: 0.1 mg/kg/injection, schedule: Q01DX010 (ip), vehicle: other) was 102 % of control and 103 % of control and the T/C (dose: 0.2 mg/kg/injection, schedule: Q01DX010 (ip), vehicle: other) was 92 % of control and 104 % of control. The T/C (dose: 0.4 mg/kg/injection, schedule: Q01DX010 (ip), vehicle: other) was 89 % of control.

For `CCN(CC)c1ccc2cc3ccc(=[N+](CC)CC)cc-3oc2c1`, the T/C (dose: 1.0 mg/kg/injection, schedule: Q01DX010 (ip), vehicle: saline) was 100 % of control, the T/C (dose: 2.0 mg/kg/injection, schedule: Q01DX010 (ip), vehicle: saline) was 91 % of control and the T/C (dose: 4.0 mg/kg/injection, schedule: Q01DX010 (ip), vehicle: saline) was 98 % of control.

For `CN(C)c1ccc(/C=C/c2ccnc3ccccc23)cc1`, the T/C (dose: 2.5 mg/kg/injection, schedule: Q01DX Z (ip), vehicle: saline) was 121 % of control, the T/C (dose: 5.0 mg/kg/injection, schedule: Q01DX010 (ip), vehicle: saline) was 104 % of control and the T/C (dose: 5.0 mg/kg/injection, schedule: Q01DX Z (ip), vehicle: saline) was 101 % of control. For the same compound, the T/C (dose: 10.0 mg/kg/injection, schedule: Q01DX010 (ip), vehicle: saline) was 95 % of control.

`O=c1[nH]c(=O)n(C2CC(O)C(CO)O2)cc1F` (stereo not given) was tested, and the T/C (dose: 40.0 mg/kg/injection, schedule: Q01DX Z (ip), vehicle: other) was 118 % of control, the T/C (dose: 80.0 mg/kg/injection, schedule: Q01DX Z (ip), vehicle: other) was 98 % of control and the T/C (dose: 160.0 mg/kg/injection, schedule: Q01DX Z (ip), vehicle: other) was 102 % of control.

`C[C@]12C=CC(=O)C=C1CC[C@@H]1[C@@H]2C(=O)C[C@@]2(C)[C@H]1CC[C@]2(O)C(=O)CO` was tested, and the T/C (dose: 25.0 mg/kg/injection, schedule: Q01DX010 (sc), vehicle: steriod suspending solution) was 90 % of control.

With `O=C(Nc1ccc(C2=NCCCN2)cc1)c1ccc(C(=O)Nc2ccc(C3=NCCCN3)cc2)cc1` the T/C (dose: 2.0 mg/kg/injection, schedule: Q01DX010 (ip), vehicle: other) was 222 % of control and 252 % of control, the T/C (dose: 4.0 mg/kg/injection, schedule: Q01DX010 (ip), vehicle: other) was 124 % of control and 242 % of control and the T/C [1] was 208 % of control. For the same compound, the T/C [2] was 122 % of control, the T/C (dose: 8.0 mg/kg/injection, schedule: Q01DX010 (ip), vehicle: other) was 114 % of control and 93 % of control and the T/C [3] was 114 % of control. For the same compound, the T/C [9] was 100 % of control, the T/C (dose: 16.0 mg/kg/injection, schedule: Q01DX010 (ip), vehicle: other) was 93 % of control and the T/C (dose: 20.0 mg/kg/injection, schedule: Q01DX Z (ip), vehicle: carboxymethylcellulose (CMC)) was 98 % of control. For the same compound, the T/C [10] was 96 % of control.

With `CN(C)c1nc(N(C)C)nc(N(C)C)n1` the T/C (dose: 0.5 mg/kg/injection, schedule: Q01DX Z (ip), vehicle: other) was 93 % of control, the T/C (dose: 1.0 mg/kg/injection, schedule: Q01DX Z (ip), vehicle: other) was 103 % of control and the T/C (dose: 4.0 mg/kg/injection, schedule: Q01DX Z (ip), vehicle: other) was 109 % of control. The T/C (dose: 18.8 mg/kg/injection, schedule: Q01DX010 (ip), vehicle: saline) was 109 % of control, the T/C (dose: 37.5 mg/kg/injection, schedule: Q01DX010 (ip), vehicle: saline) was 105 % of control and the T/C (dose: 75.0 mg/kg/injection, schedule: Q01DX010 (ip), vehicle: saline) was 93 % of control. The T/C (dose: 87.5 mg/kg/injection, schedule: Q01DX Z (ip), vehicle: other) was 101 % of control, the T/C (dose: 150.0 mg/kg/injection, schedule: Q01DX010 (ip), vehicle: saline) was 104 % of control and the T/C (dose: 175.0 mg/kg/injection, schedule: Q01DX Z (ip), vehicle: other) was 94 % of control.

In the case of `CSc1ncnc2nc[nH]c12`, the T/C [2] is reported as 93 % of control, the T/C [9] is reported as 86 % of control and the T/C (dose: 31.0 mg/kg/injection, schedule: Q01DX Z (ip), vehicle: carboxymethylcellulose (CMC)) is reported as 122 % of control. The T/C (dose: 62.5 mg/kg/injection, schedule: Q01DX Z (ip), vehicle: carboxymethylcellulose (CMC)) was 112 % of control and the T/C (dose: 125.0 mg/kg/injection, schedule: Q01DX Z (ip), vehicle: carboxymethylcellulose (CMC)) was 107 % of control.

In the case of `CCOC(N)=O`, the T/C (dose: 62.5 mg/kg/injection, schedule: Q01DX010 (ip), vehicle: saline) is reported as 87 % of control, the T/C (dose: 125.0 mg/kg/injection, schedule: Q01DX010 (ip), vehicle: saline) is reported as 98 % of control and the T/C (dose: 188.0 mg/kg/injection, schedule: Q01DX Z (ip), vehicle: saline) is reported as 102 % of control. For the same compound, the T/C (dose: 250.0 mg/kg/injection, schedule: Q01DX Z (ip), vehicle: saline) was 91 % of control, the T/C (dose: 375.0 mg/kg/injection, schedule: Q01DX Z (ip), vehicle: saline) was 87 % of control and 99 % of control and the T/C (dose: 500.0 mg/kg/injection, schedule: Q01DX010 (ip), vehicle: saline) was 88 % of control. For the same compound, the T/C (dose: 750.0 mg/kg/injection, schedule: Q01DX Z (ip), vehicle: saline) was 93 % of control and the T/C (dose: 1500.0 mg/kg/injection, schedule: Q01DX Z (ip), vehicle: saline) was 100 % of control.

In the case of `CC1(C)N=C(N)N=C(N)N1c1cccc(Br)c1`, the T/C [6] is reported as 97 % of control, the T/C (dose: 6.25 mg/kg/injection, schedule: Q01DX Z (ip), vehicle: carboxymethylcellulose (CMC)) is reported as 109 % of control and the T/C [4] is reported as 98 % of control. The T/C [10] was 98 % of control and the T/C [5] was 92 % of control.

`C1CN1c1nc(N2CC2)nc(N2CC2)n1` was tested, and the T/C (dose: 2.0 mg/kg/injection, schedule: Q01DX Z (ip), vehicle: saline) was 93 % of control, the T/C (dose: 4.0 mg/kg/injection, schedule: Q01DX Z (ip), vehicle: saline) was 93 % of control and the T/C (dose: 32.0 micrograms/kg/injection, schedule: Q01DX Z (ip), vehicle: saline) was 90 % of control and 100 % of control. For the same compound, the T/C (dose: 63.0 micrograms/kg/injection, schedule: Q01DX Z (ip), vehicle: saline) was 98 % of control, the T/C (dose: 125.0 micrograms/kg/injection, schedule: Q01DX Z (ip), vehicle: saline) was 87 % of control and the T/C (dose: 250.0 micrograms/kg/injection, schedule: Q01DX Z (ip), vehicle: saline) was 98 % of control.

In the case of `CC(=O)Nc1ccc2nc3ccc(NC(C)=O)cc3[n+](-c3ccccc3)c2c1`, the T/C [6] is reported as 107 % of control, the T/C [7] is reported as 88 % of control and the T/C [8] is reported as 100 % of control.
